According to ChEMBL document CHEMBL1201862, “PubChem BioAssay data set” (2004):
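Interpolation was linear, between the two tested concentrations surrounding the appropriate level; five concentrations were tested over 48 hours in 96-well plates. GI50 marks 50% less growth.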 Active and inactive are the calls of the source. Cut-off read from the data, not from the text of the source: active = GI50 up to about 1.1 µM and inactive = higher.

Columns and labels:
Experiment in all cases: DTP human tumour cell line panel, 48 h
SK-MEL-5 = test system: SK-MEL-5
CCRF-CEM = test system: CCRF-CEM
OVCAR-4 = test system: OVCAR-4
A549 = test system: A549
SK-MEL-28 = test system: SK-MEL-28
HCC 2998 = test system: HCC 2998
SK-MEL-2 = test system: SK-MEL-2
Malme-3M = test system: Malme-3M
COLO 205 = test system: COLO 205
HCT-15 = test system: HCT-15
OVCAR-8 = test system: OVCAR-8
EKVX = test system: EKVX
NCI-H522 = test system: NCI-H522
U-251 = test system: U-251
ACHN = test system: ACHN
KM12 = test system: KM12
CAKI-1 = test system: CAKI-1
PC-3 = test system: PC-3
MCF7 = test system: MCF7
Hs-578T = test system: Hs-578T

Row | Compound | GI50 (SK-MEL-5) | GI50 (CCRF-CEM) | GI50 (OVCAR-4) | GI50 (A549) | GI50 (SK-MEL-28) | GI50 (HCC 2998) | GI50 (SK-MEL-2) | GI50 (Malme-3M) | GI50 (COLO 205) | GI50 (HCT-15) [µM] | GI50 (OVCAR-8) | GI50 (EKVX) | GI50 (NCI-H522) | GI50 (U-251) | GI50 (ACHN) | GI50 (KM12) | GI50 (CAKI-1) | GI50 (PC-3) | GI50 (MCF7) | GI50 (Hs-578T)
1 | N#C/N=N/c1cc(Cl)c(/N=N/C#N)cc1Cl | > 100 µM (inactive) | 19.8 µM (inactive) | 47 µM (inactive) | > 100 µM (inactive) | > 100 µM (inactive) | > 100 µM (inactive) | > 100 µM (inactive) | > 100 µM (inactive) | 97.5 µM (inactive) | > 100 | > 100 µM (inactive) | > 100 µM (inactive) | 51.3 µM (inactive) | > 100 µM (inactive) | > 100 µM (inactive) | > 100 µM (inactive) |  |  |  | 
2 | CN(C)CCCn1c(-c2cc(C(C)(C)C)c(O)c(C(C)(C)C)c2)cs/c1=N\c1ccccc1 |  |  | 2.09 µM (inactive) | 1.77 µM (inactive) | 2.39 µM (inactive) | 1.85 µM (inactive) | 3.06 µM (inactive) |  |  | 3.24 | 1.97 µM (inactive) | 2.16 µM (inactive) |  | 2.93 µM (inactive) | 2.98 µM (inactive) | 1.91 µM (inactive) | 17.8 µM (inactive) | 1.87 µM (inactive) |  | 
3 | CN(C)CCNC(=O)c1cccc2ccc(-c3ccc(F)cc3)nc12 | 3.34 µM (inactive) | 2.86 µM (inactive) | 4.38 µM (inactive) | 3.13 µM (inactive) | 7.06 µM (inactive) | 6.46 µM (inactive) | 9.18 µM (inactive) | 4.9 µM (inactive) | 2.43 µM (inactive) | 3.85 | 3.3 µM (inactive) |  | 3.91 µM (inactive) | 6.19 µM (inactive) |  | 6.67 µM (inactive) | 2.69 µM (inactive) |  | 3.56 µM (inactive) | 
4 | O=C(NN1C(=O)CS(=O)(=O)C1c1ccc(Cl)c(Cl)c1)c1ccncc1 (configuration not stated) | > 94.2 µM (inactive) | 42.1 µM (inactive) | > 100 µM (inactive) | > 92.3 µM (inactive) | > 100 µM (inactive) | > 100 µM (inactive) | > 100 µM (inactive) | > 100 µM (inactive) | > 100 µM (inactive) | > 100 | > 100 µM (inactive) | > 74 µM (inactive) | 66.1 µM (inactive) | > 100 µM (inactive) |  | > 100 µM (inactive) | > 100 µM (inactive) |  | 98.2 µM (inactive) | 
5 | CC1(C)CC(=O)C2=C(C1)OC1=C(CC(C)(C)CC1=O)C2c1ccccc1[N+](=O)[O-] (configuration not stated) | > 100 µM (inactive) | > 100 µM (inactive) | > 100 µM (inactive) | > 100 µM (inactive) | > 100 µM (inactive) | > 100 µM (inactive) | > 100 µM (inactive) | > 100 µM (inactive) | > 100 µM (inactive) | > 100 |  | > 100 µM (inactive) | > 100 µM (inactive) | > 100 µM (inactive) | > 100 µM (inactive) | > 100 µM (inactive) | > 100 µM (inactive) | > 100 µM (inactive) |  | > 100 µM (inactive)
6 | O=[N+]([O-])c1ccc2[nH]c3c(-c4ccccc4)nccc3c2c1 | 15.4 µM (inactive) | 4.09 µM (inactive) | 10.5 µM (inactive) | 15.6 µM (inactive) | 29.2 µM (inactive) | 19.5 µM (inactive) | 35 µM (inactive) | 18.9 µM (inactive) | 34.2 µM (inactive) | 8.59 | 22 µM (inactive) | 21.1 µM (inactive) | 14.3 µM (inactive) | 19.5 µM (inactive) |  | 34.8 µM (inactive) |  |  | 24.8 µM (inactive) | 
7 | CC(=O)Nc1ccc(C2[C@H]3C(=O)N(c4ccc(Cc5ccc(N6C(=O)[C@@H]7ON(c8ccccc8)C(c8ccc(NC(C)=O)cc8)[C@@H]7C6=O)cc5)cc4)C(=O)[C@H]3ON2c2ccccc2)cc1 (some centres not stated) | 32.6 µM (inactive) | > 100 µM (inactive) | > 100 µM (inactive) | > 100 µM (inactive) | > 100 µM (inactive) | > 100 µM (inactive) | > 100 µM (inactive) | > 100 µM (inactive) | 74.6 µM (inactive) | > 100 | > 100 µM (inactive) | > 100 µM (inactive) | > 100 µM (inactive) | > 100 µM (inactive) | > 100 µM (inactive) | > 100 µM (inactive) | 98.2 µM (inactive) |  |  | 
8 | O=c1[nH]c(=O)n(C2CC(O)C(CO)O2)cc1C(OCC(F)(F)F)OCC(F)(F)F (configuration not stated) | > 100 µM (inactive) | 70.8 µM (inactive) | > 100 µM (inactive) | > 100 µM (inactive) | > 100 µM (inactive) | > 100 µM (inactive) | > 100 µM (inactive) | > 100 µM (inactive) | > 100 µM (inactive) |  | > 100 µM (inactive) | > 100 µM (inactive) | > 100 µM (inactive) | > 100 µM (inactive) | > 100 µM (inactive) | > 100 µM (inactive) | > 100 µM (inactive) |  |  | 
9 | C[Si](C)(C)/C=C/CN1C(=O)CCC1=O | > 100 µM (inactive) | > 100 µM (inactive) |  | > 100 µM (inactive) | > 100 µM (inactive) | > 100 µM (inactive) | > 100 µM (inactive) | > 100 µM (inactive) | > 100 µM (inactive) | > 100 |  | > 100 µM (inactive) | > 100 µM (inactive) | > 100 µM (inactive) | > 100 µM (inactive) | > 100 µM (inactive) |  |  |  | 
10 | COc1c(Br)cc(CC(N)=O)c(O)c1Br | > 100 µM (inactive) | > 100 µM (inactive) | > 100 µM (inactive) | > 100 µM (inactive) | > 100 µM (inactive) | > 100 µM (inactive) | > 100 µM (inactive) | > 100 µM (inactive) | > 100 µM (inactive) |  | > 100 µM (inactive) | > 100 µM (inactive) | > 100 µM (inactive) | > 100 µM (inactive) | > 100 µM (inactive) | > 100 µM (inactive) | > 100 µM (inactive) |  |  | 
11 | Cc1ccc2[nH]c3c(c(=O)n(C)c(=O)n3C)c2c1 | > 100 µM (inactive) | > 100 µM (inactive) | > 100 µM (inactive) | > 100 µM (inactive) |  | > 100 µM (inactive) | > 100 µM (inactive) | > 100 µM (inactive) | > 100 µM (inactive) | > 100 | > 100 µM (inactive) | > 100 µM (inactive) | > 100 µM (inactive) | > 100 µM (inactive) | > 100 µM (inactive) | > 100 µM (inactive) | > 100 µM (inactive) |  | > 100 µM (inactive) | > 100 µM (inactive)
12 | COc1nc(SC)nc2c1cnn2C1OC(C(O)CO)C(OC)C1O (configuration not stated) | > 100 µM (inactive) | 58.7 µM (inactive) | 69.3 µM (inactive) | 52.1 µM (inactive) | > 100 µM (inactive) | > 100 µM (inactive) | > 100 µM (inactive) | > 100 µM (inactive) | > 74.5 µM (inactive) | > 83 | > 100 µM (inactive) | > 100 µM (inactive) | > 100 µM (inactive) | > 100 µM (inactive) |  | > 78.9 µM (inactive) |  |  | > 62.4 µM (inactive) | 
13 | COc1cc(C2C(C(=O)O)=C(CO)Oc3cc4c(cc32)OCO4)cc(OC)c1O (configuration not stated) | > 100 µM (inactive) | > 100 µM (inactive) | > 100 µM (inactive) | > 100 µM (inactive) | > 100 µM (inactive) |  |  | > 100 µM (inactive) | > 100 µM (inactive) | > 100 | > 100 µM (inactive) | > 100 µM (inactive) |  | > 100 µM (inactive) | > 100 µM (inactive) |  | > 100 µM (inactive) |  |  | 
14 | C=CCc1cccc(C(=O)/C=C(O)/C=C/c2ccccc2Cl)c1O | 7.16 µM (inactive) | 6.82 µM (inactive) |  | 8.91 µM (inactive) | 10.5 µM (inactive) | 33.9 µM (inactive) | 10.4 µM (inactive) |  | 25.1 µM (inactive) | 8.39 | 6.04 µM (inactive) | 29.5 µM (inactive) | 11.2 µM (inactive) | 5.66 µM (inactive) | 23.3 µM (inactive) | 17.2 µM (inactive) | 42.6 µM (inactive) | 8.38 µM (inactive) | 13.2 µM (inactive) | 
15 | O=C(CSc1nnc(Cc2ccccc2)o1)Nc1ccc(Cl)cc1[N+](=O)[O-] | 16.9 µM (inactive) | 15.6 µM (inactive) | 18.8 µM (inactive) | 18.9 µM (inactive) | 15.5 µM (inactive) |  | 15.9 µM (inactive) | 16.4 µM (inactive) | 21.9 µM (inactive) | 16.5 | 29.8 µM (inactive) | 20.3 µM (inactive) | 3.17 µM (inactive) | 19.5 µM (inactive) | 12.6 µM (inactive) | > 10 µM (inactive) |  |  |  | 
16 | CC1(C)OP23(NC(=O)OC2(C(F)(F)F)c2ccccc2O3)OC1(C)C (configuration not stated) | > 100 µM (inactive) | > 100 µM (inactive) | > 100 µM (inactive) | > 100 µM (inactive) | > 100 µM (inactive) |  | > 100 µM (inactive) | > 100 µM (inactive) |  | > 100 | > 100 µM (inactive) |  | > 100 µM (inactive) | > 100 µM (inactive) | > 100 µM (inactive) | > 100 µM (inactive) |  |  |  | 
17 | C/C(=N\NC(=S)N1CCCCCC1)c1nccnc1C | 0.0292 µM (active) | 0.0607 µM (active) | 0.134 µM (active) | 0.0331 µM (active) | 0.106 µM (active) | 7.36 µM (inactive) | 12.8 µM (inactive) | 11.8 µM (inactive) | < 0.01 µM (active) | < 0.01 | < 0.01 µM (active) | 0.0188 µM (active) |  | 0.2 µM (active) | 0.219 µM (active) | 0.0887 µM (active) | 0.155 µM (active) |  |  | 
